From PubChem BioAssay AID504680 (Sanford-Burnham Center for Chemical Genomics, 2011)
Calls of active or inactive are those of the source.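 Rule for the calls: active = IC50 below 100 µM in the TR-FRET assay, unless also active in the caspase-3 counter assay; inactive = the rest, including compounds also active in caspase-3.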

Target: Caspase-3 (Homo sapiens) (UniProt P42574)
Assay: caspase-3 inhibitors as false-positive filter, SAR follow-up, counter-screen for UBC13 polyubiquitin inhibitor project, biochemical, luminescence, Caspase-Glo 3/7 (AID 504680)
Conditions: recombinant caspase-3, Caspase-Glo luminescence, 60 min

Caspase-3 (Homo sapiens), sequence (P42574 whole entry, looked up): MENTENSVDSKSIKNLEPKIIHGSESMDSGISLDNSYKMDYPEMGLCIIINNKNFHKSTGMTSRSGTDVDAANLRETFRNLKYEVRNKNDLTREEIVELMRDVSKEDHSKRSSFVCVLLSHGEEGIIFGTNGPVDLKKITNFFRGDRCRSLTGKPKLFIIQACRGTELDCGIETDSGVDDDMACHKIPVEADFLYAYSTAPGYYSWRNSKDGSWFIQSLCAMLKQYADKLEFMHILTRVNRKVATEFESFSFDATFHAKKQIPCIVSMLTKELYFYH

| IC50 | SMILES |
| --- | --- |
| > 100 µM (inactive) | Cc1cccc(OCC(O)CN2CCN(CCN3C(=O)c4cccc5cccc(c45)C3=O)CC2)c1C (stereo unspecified) |
| > 100 µM (inactive) | CCN(Cc1ccccc1)S(=O)(=O)c1ccc(C(=O)N(CCCN(C)C)c2nc3cc4c(cc3s2)OCO4)cc1 |
| > 100 µM (inactive) | CCOc1cccc2sc(N(CCCN(C)C)C(=O)c3ccc(S(=O)(=O)N4CCc5ccccc5C4)cc3)nc12 |
| > 100 µM (inactive) | O=C(c1ccco1)N1CCN(C(=O)C2CCN(c3ncnc4c3nc3n4CCCCC3)CC2)CC1 |
| > 100 µM (inactive) | O=C(CCCCCN1C(=O)c2cccc([N+](=O)[O-])c2C1=O)NCc1ccccc1 |
| > 100 µM (inactive) | CCC1CCCCN1CCCNC(=O)C1CCN(c2ncnc3c2nc2n3CCCCC2)CC1 (stereo unspecified) |
| > 100 µM (inactive) | CCOc1cccc2sc(N(CCCN(C)C)C(=O)c3ccc(S(=O)(=O)N(C)Cc4ccccc4)cc3)nc12 |
| > 100 µM (inactive) | O=C(CCCCCN1C(=O)c2ccccc2C1=O)NCc1ccccn1 |
| > 100 µM (inactive) | Cc1cc(C)c2sc(N(CCCN(C)C)C(=O)c3ccc(S(=O)(=O)N(C)C4CCCCC4)cc3)nc2c1 |
| > 100 µM (inactive) | C=CCc1ccccc1OCC(O)CN1CCN(CCN2C(=O)c3cccc4cccc(c34)C2=O)CC1 (stereo unspecified) |
| > 100 µM (inactive) | Cc1cc(NS(=O)(=O)c2ccc(NC(=O)CCCCCN3C(=O)c4ccccc4C3=O)cc2)nc(C)n1 |
| > 100 µM (inactive) | O=C(NCCCN1CCCCC1)C1CCN(c2ncnc3c2nc2n3CCCCC2)CC1 |
| > 100 µM (inactive) | O=C(CCCCCN1C(=O)c2ccccc2C1=O)NCCc1nc2ccccc2[nH]1 |
| > 100 µM (inactive) | O=C(CCCn1c(=O)c2ccccc2n(Cc2ccccc2F)c1=O)NC1CCN(Cc2ccccc2)CC1 |
| > 100 µM (inactive) | COc1ccc(OC)c2sc(N(CCCN(C)C)C(=O)c3ccc(S(=O)(=O)N4CCc5ccccc5C4)cc3)nc12 |
| > 100 µM (inactive) | COc1ccc(NC(=O)CCCCCN2C(=O)c3cccc([N+](=O)[O-])c3C2=O)cc1 |
| > 100 µM (inactive) | CCOc1cccc2sc(N(CCCN(C)C)C(=O)c3ccc(S(=O)(=O)N(CC)Cc4ccccc4)cc3)nc12 |
| > 100 µM (inactive) | CC(NC(=O)CCCCCN1C(=O)c2ccccc2C1=O)c1nc(-c2ccccc2)no1 (stereo unspecified) |
| > 100 µM (inactive) | Cc1ccc2nc(N(CCCN(C)C)C(=O)c3ccc(S(=O)(=O)N4CCc5ccccc5C4)cc3)sc2c1 |
| > 100 µM (inactive) | Cc1nc2ccccc2c(=O)n1NC(=O)c1ccc(OC(F)F)cc1 |
| > 100 µM (inactive) | O=C(NCCCN1CCN(c2ccccc2)CC1)C1CCCN(c2ncnc3c2nc2n3CCCCC2)C1 (stereo unspecified) |
| > 100 µM (inactive) | CCCCOC(=O)c1cccc(NC(=O)CCCCCN2C(=O)c3ccccc3C2=O)c1 |
| > 100 µM (inactive) | O=C(NCC1CCN(Cc2cccc(Cl)c2)CC1)C1CCCN(c2ncnc3c2nc2n3CCCCC2)C1 (stereo unspecified) |

| IC50 | SMILES |
| --- | --- |
| > 100 µM (inactive) | COc1ccc(C)c2sc(N(CCCN(C)C)C(=O)c3ccc(S(=O)(=O)N(C)C)cc3)nc12 |
| > 100 µM (inactive) | O=C(CCCCCN1C(=O)c2ccccc2C1=O)N1CCN(c2ccc([N+](=O)[O-])cc2)CC1 |
| > 100 µM (inactive) | O=C(CCCn1c(=O)c2ccccc2n(Cc2ccc(Cl)cc2)c1=O)NC1CCN(Cc2ccccc2)CC1 |
| > 100 µM (inactive) | O=C(Nc1ccc(F)c(Cl)c1)C1CCN(c2ncnc3c2nc2n3CCCCC2)CC1 |
| > 100 µM (inactive) | Cc1ccccc1CN1CCC(CNC(=O)C2CCCN(c3ncnc4c3nc3n4CCCCC3)C2)CC1 (stereo unspecified) |
| > 100 µM (inactive) | CNCc1cc(Br)c(OCC(=O)Nc2ccccc2OC)c(OC)c1 |
| > 100 µM (inactive) | O=C(C1CCN(c2ncnc3c2nc2n3CCCCC2)CC1)N1CCN(c2ccccn2)CC1 |
| > 100 µM (inactive) | CCc1ccc(OCC(O)CN2CCC(CN3C(=O)c4cccc5cccc(c45)C3=O)CC2)cc1 (stereo unspecified) |
| > 100 µM (inactive) | CC(=O)Nc1ccc(OCC(O)CN2CCN(CCN3C(=O)c4cccc5cccc(c45)C3=O)CC2)cc1 (stereo unspecified) |
| > 100 µM (inactive) | Cc1ccc(-c2oc3ncnc(N)c3c2-c2ccc(C)cc2)cc1 |
| > 100 µM (inactive) | O=C(NCCCN1CCN(c2ccc(F)cc2)CC1)C1CCCN(c2ncnc3c2nc2n3CCCCC2)C1 (stereo unspecified) |
| > 100 µM (inactive) | CCc1ccc2nc(N(CCCN(C)C)C(=O)c3ccc(S(=O)(=O)N4CCc5ccccc5C4)cc3)sc2c1 |
| > 100 µM (inactive) | COC(=O)C1=C(NC(=O)CCCCCN2C(=O)c3ccccc3C2=O)SC2CCCC12 (stereo unspecified) |
| > 100 µM (inactive) | O=C1c2cccc3cccc(c23)C(=O)N1CCN1CCN(CC(O)COc2ccc(C3CCCCC3)cc2)CC1 (stereo unspecified) |
| > 100 µM (inactive) | CC(=O)c1ccc(OCC(O)CN2CCN(CCN3C(=O)c4cccc5cccc(c45)C3=O)CC2)cc1 (stereo unspecified) |
| > 100 µM (inactive) | Cc1ccc(C)c(OCC(O)CN2CCN(CCN3C(=O)c4cccc5cccc(c45)C3=O)CC2)c1 (stereo unspecified) |
| > 100 µM (inactive) | O=C(C1CCN(c2ncnc3c2nc2n3CCCCC2)CC1)N1CCN(c2ccccc2)CC1 |
| > 100 µM (inactive) | O=C1c2cccc3cccc(c23)C(=O)N1CCN1CCN(CC(O)COc2ccc3c(c2)OCO3)CC1 (stereo unspecified) |
| > 100 µM (inactive) | CCCN1CCN(C(=O)C2CCN(c3ncnc4c3nc3n4CCCCC3)CC2)CC1 |
| > 100 µM (inactive) | Cc1c(NC(=O)CCCN2C(=O)c3cccc4cccc(c34)C2=O)c(=O)n(-c2ccccc2)n1C |
| > 100 µM (inactive) | Cc1cc(OCC(O)CN2CCN(CCN3C(=O)c4cccc5cccc(c45)C3=O)CC2)ccc1C(C)C (stereo unspecified) |
| > 100 µM (inactive) | Cc1ccc(NC(=O)C2CCN(c3ncnc4c3nc3n4CCCCC3)CC2)cc1Cl |
| > 100 µM (inactive) | Cc1ccc(OCC(O)CN2CCN(CCN3C(=O)c4cccc5cccc(c45)C3=O)CC2)c(C)c1 (stereo unspecified) |
